Tested on: P. falciparum 3D7 growth, pLDH absorbance
Experiment: blood-stage malaria parasite growth potency – strain 3D7, dose response (AID 2305)

| SMILES | IC50 [nM] |
| --- | --- |
| O=C(O)c1ccc2nc(-c3ccccn3)c(-c3ccccn3)nc2c1 | 220 |
| O=C(Nc1ccc(Cl)cc1)Nc1nc2ccc([N+](=O)[O-])cc2[nH]1 | 800 |
| COc1cccc(-c2ccc3ccnc(N)c3c2)c1 | 410 |
| O=C(Nc1ccccc1)N(Cc1cccc(-c2cccc(CNCCc3ccccc3)c2)c1)C1CCN(Cc2ccccc2)CC1 | 310 |
| CN1CCC(C(=O)Nc2cccc(-c3ccc(-c4nc5ccc(C(F)(F)F)cc5[nH]4)cc3)c2)CC1 | 680 |
| Cc1ccc(O)cc1Nc1ccnc2cc(-c3ccccn3)ccc12 | 760 |
| CN1CC=C(c2c[nH]c3ccc(Oc4ccccc4)cc23)CC1 | 250 |
| COc1ccc2ccc(OC)c(CNCCCCCCNCc3c(OC)ccc4ccc(OC)cc34)c2c1 | 700 |
| COc1cccc(-c2ccc3c(-c4cccc(S(C)(=O)=O)c4)cnc(N)c3c2)c1 | 870 |
| COc1ccc2ncc(F)c(CCN3CC[C@H](NCc4cc(C#N)c5c(c4)OCCO5)[C@H](O)C3)c2c1 | 890 |
| COc1ccc(C2SCC(=O)N2CCc2ccc(OC)c(OC)c2)cc1 (stereo not drawn) | 310 |
| CC(=O)c1cccc2[nH]c(C(=O)NC3CCC(CCN4CCc5ccc(C#N)cc5C4)CC3)cc12 (stereo not drawn) | 840 |
| Cc1[nH]c(C)c(-c2cc3ccccc3o2)c(=O)c1Cl | 1720 |
| Cn1nccc1C(=O)NCCNCc1ccc(-c2ccc(-c3nc4ccc(F)cc4[nH]3)cc2)cc1 | 300 |
| NC1=NC2(CCCC2)C(c2ccc(Cl)c(Cl)c2)C(N)=N1 (stereo not drawn) | 990 |
| Clc1ccc(OCCC2CCN(CCCCCCCN3CCC(CCOc4ccc(Cl)c(Cl)c4)CC3)CC2)cc1Cl | 620 |
| Cc1cc(Nc2ccc3c(c2)CCC3)n2ncnc2n1 | 970 |
| Cc1c(C)c2c(c(C)c1O)CC[C@@](C)(C(=O)N1CCC(CN3CCC(c4c[nH]c5ccccc45)CC3)CC1)O2 | 660 |
| C(=Cc1ccccc1)C=NNc1ccnc2ccccc12 | 730 |
| O=C(NCCCN1CCN(c2cccc(Cl)c2)CC1)c1ccc(-c2nc3cc(Cl)c(Cl)cc3[nH]2)c(F)c1 | 830 |
| CCCCCOc1ccc(N2C(N)=NC(N)=NC2(C)C)cc1 | 200 |
| O=C(Cc1cccc(O)c1)Nc1ccc(-c2cccc(-c3nc4ccc(C(F)(F)F)cc4[nH]3)c2)cc1 | 980 |
| CCC[C@@H]([C@@H](CC1CCC(C)CC1)C(=O)N[C@@H](CCCCNC(=O)c1ccccn1)C(=O)Nc1nccs1)N(O)C=O (stereo partly drawn) | 50 |
| N#Cc1c(N)n(CCc2ccc(F)cc2)c2nc3ccccc3nc12 | 970 |
| Cn1c(/C=C/C(=O)NC2CCC(CCN3CCc4ccc(C#N)cc4CC3)CC2)cc2ccccc21 (stereo not drawn) | 730 |

| SMILES | IC50 [nM] |
| --- | --- |
| O=C1CSc2ccc(CNC3CCN(CCc4c(Cl)cnc5ccc(F)cc45)CC3)nc2N1 | 430 |
| Cc1c(S(=O)(=O)Nc2ccc3ccn(CCN(C)C)c3c2)sc2ccc(Cl)cc12 | 920 |
| CC1CCC(NCc2ccc3c(CNC4CCC(C)CC4)c(O)ccc3c2O)CC1 (stereo not drawn) | 120 |
| NC(N)=NC(=O)Nc1cc(Cl)c(Cl)c(Cl)c1 | 590 |
| COc1ccc(OCc2ccccn2)c(C2CCN(CCCCNC(=O)c3ccc(NC(=O)c4ccc(Cl)cc4)cc3)CC2)c1 | 760 |
| Cc1oc(-c2ccc(Cl)cc2)cc1C(=O)NCCC1CCN(CCCCCNC(=O)/C=C/c2ccc(Cl)c(Cl)c2)CC1 | 450 |
| COc1ccc2nccc(NN=Cc3ccccc3)c2c1 | 110 |
| CCN(CC)CCNc1ccc(Nc2ccnc3cc4ccccc4cc23)cc1 | 200 |
| Cc1cc(Nc2ccccc2)nc(NCCOc2ccccc2)n1 | 730 |
| c1ccc2c(CNc3nc(NCC4CCCCC4)nc4nc[nH]c34)cccc2c1 | 890 |
| Cc1nc(-c2cccc(Nc3nccc(NCC(O)c4cccc(C(F)(F)F)c4)n3)c2)cs1 (stereo not drawn) | 630 |
| COc1ccc2nccc(NN=Cc3ccc(F)cc3)c2c1 | 720 |
| CCOc1cc(Br)c(C(C)NC(=O)c2ccccc2)cc1OCC (stereo not drawn) | 860 |
| O=C(/C=C/c1ccc(Cl)c(Cl)c1)N1CCC(CN2CCC(Cc3c[nH]c4ccccc34)CC2)CC1 | 670 |
| CN1CCc2cc(CN3C[C@]4(C)C[C@H]3CC(C)(C)C4)c(O)cc2C(c2ccccc2)C1 (stereo partly drawn) | 720 |
| CC(C)(Cc1ccc(Cl)cc1)NCCCCCCNCCc1ccc(O)c(O)c1 | 1200 |
| Cc1cccc(C(=O)NC(NC(=S)Nc2ccc([N+](=O)[O-])cc2)C(Cl)(Cl)Cl)c1 (stereo not drawn) | 740 |
| CCN1CCN(Cc2ccc3nc(-c4cc(C)n(Cc5cc(Cl)ccc5OCc5ccccc5)n4)[nH]c3c2)CC1 | 770 |
| CS(=O)(=O)CCNc1cc(N2CCc3ncnc(Nc4ccc(OCc5cccc(F)c5)c(Cl)c4)c3C2)ncn1 | 870 |
| CCN(CC)CCN(Cc1ccc(-c2ccc(C(F)(F)F)cc2)nc1)C(=O)Cn1cc(Cc2cnn(C)c2)c(=O)n2nc(-c3ccccc3)cc12 | 990 |
| C[C@@H](Nc1nc(NCc2ccccc2)c2sccc2n1)c1ccccc1 | 920 |
| Cc1ccc(N2CCN(C(=O)c3cccc(-c4cncc5nc(-c6ccco6)n(C)c45)c3)CC2)nc1 | 600 |
| Cc1nc2c(Nc3nc(-c4ccncc4)cs3)ncnc2n1-c1ccccc1Cl | 180 |
| COc1cccc(-c2cnc(N)c(-c3nc4ccc(F)cc4[nH]3)c2)c1 | 850 |
| CCCCCN1CCN(Cc2cccc(NC(=O)c3ccc(Cl)c(Cl)c3)c2)CC1 | 860 |

| SMILES | IC50 [nM] |
| --- | --- |
| CN(C)C(CNC(=O)c1cc(-c2ccncc2)c(-c2ccc(Cl)c(O)c2)o1)c1ccccc1 (stereo not drawn) | 840 |
| CC(C)CN1C(=O)C(c2ccc(F)c(F)c2)=C(O)C1c1ccccc1 (stereo not drawn) | 190 |
| NC1=NC2(CCCCC2)N(OCCOc2ccc(Cc3ccccc3)cc2)C(N)=N1 | 1130 |
| CC(C)C[C@H](NC(=O)c1ccc(F)cc1)C(=O)N[C@H](/C=N/NC(=O)c1ccccc1)CCc1ccccc1 | 810 |
| COc1ccc2ncc(F)c(CCN3C[C@H](CNCc4ccccc4)[C@H](O)C3)c2n1 | 910 |
| Cc1nnc2c(NC(=O)NC3CCCC3)cc3cc(-c4ccc(CN5CCN(C)CC5)cc4)ccc3n12 | 1020 |
| CCCc1cc(NCC)nc(Nc2ccc(F)cc2)n1 | 1030 |
| Cc1cc(C(=O)N[C@H]2CCN(Cc3ccc(OCCCN(C)C)cc3)C2)ccc1Br | 900 |
| NC(=O)COc1c(C2CCN(CCCCNC(=O)c3ccc(-c4ccc(Cl)cc4)c(O)c3)CC2)ccc2c1CCCC2 | 710 |
| COc1cc2ncnc(NCCc3ccccc3Cl)c2cc1OC | 1120 |
| CCc1cn(CCS(C)(=O)=O)c2ccc(C(=O)N[C@@H](Cc3ccccc3)[C@H](O)CNC(C)(C)CCCC(C)C)cc12 | 880 |
| COc1ccc2ncc(F)c([C@H](O)CN3CCC(NCc4ccc5c(c4)OCCO5)CC3)c2c1 | 150 |
| O=C(/C=C/c1ccc(Cl)cc1)NCCCCCN1CCC(c2c[nH]c3ccccc23)CC1 | 840 |
| CCN(CC)CCNC(=O)c1ccc(NC(=O)c2cc3c(C)nn(-c4ccc(Cl)cc4)c3s2)cc1 | 250 |
| CCOC(=O)CC[C@@H](NC(=O)c1ccc(NCc2ccc3ccc4nc(C)[nH]c(=O)c4c3c2)cc1F)C(=O)N[C@@H](Cc1c[nH]c2ccccc12)C(=O)OCC | 1030 |
| COc1ccc(C=NNc2cc(C)nc3c(C)cccc23)c2ccccc12 | 220 |
| O=C(Nc1cccc(CN2CCN(Cc3cccc(O)c3)CC2)c1)c1ccc(Cl)c(Cl)c1 | 410 |
| CC[C@H](C)CNC(=O)c1ccnc(-c2cccc(CN3CCC(N4CCCC4)CC3)c2)c1 | 850 |
| COc1cccc(C(=O)NC(c2ccccc2OC)c2cc(Cl)c3cccnc3c2O)c1 (stereo not drawn) | 1190 |
| Cc1ccccc1C1CCN(C2CCC(NC(=O)/C=C/c3ccc(C(F)(F)F)cc3)CC2)CC1 (stereo not drawn) | 1040 |
| CCC(C)CN1CCC(N(C)c2cc(NC(=O)c3ccc(F)cc3)ccn2)CC1 (stereo not drawn) | 980 |
| COc1cccc(-c2cc(-c3ccc(NC(=O)c4ccccc4)cc3)c3c(N)ncnc3n2)c1 | 590 |
| C=CCOC(=O)N1CCC(CNCc2cccc(-c3cccc(-c4nc5ccccc5[nH]4)c3)c2)C1 (stereo not drawn) | 340 |
| Oc1ccc(OCc2ccccn2)cc1 | 980 |
| O=C(NC1CCC(N2CCC(c3nc4ccccc4s3)CC2)CC1)c1cc2ccccc2[nH]1 (stereo not drawn) | 930 |

| SMILES | IC50 [nM] |
| --- | --- |
| COc1ccc(C(=O)C2CCN(CCCCNC(=O)c3ccc(NC(=O)c4ccc(Cl)cc4)cc3)CC2)c(OC)c1 | 770 |
| CCOc1cc(C(=O)Nc2ccc3nc(N4CCCCC4)cc(C)c3c2)cc(OCC)c1OCC | 820 |
| CCCCCC(=O)NCC(NCCCNc1cc(=O)c2ccccc2[nH]1)c1cc(Br)cc(Br)c1 (stereo not drawn) | 650 |
| CC(C)C(C(=O)Nc1ccc2c(c1)OCO2)c1ccc(Cl)cc1 (stereo not drawn) | 720 |
| Cn1nc(-c2ccc(NC(=O)Nc3ccc4ccccc4c3)c(F)c2)c2cnc(NCCN3CCOCC3)nc21 | 1020 |
| COc1ccc(-c2nc(NC(=O)CSc3ccccc3)sc2C)cc1 | 760 |
| COC(=O)CCCOc1cc(Cc2cnc(N)nc2N)cc(OC)c1OC | 770 |
| Cc1ccc2oc3cc(-c4nn[nH]n4)ccc3c(=O)c2c1 | 90 |
| O=C(NCCN1CCC(c2ccncc2)CC1)c1ccc(Nc2nccc(Nc3ccc(Oc4ccccc4)cc3)n2)cc1 | 720 |
| CC(NC(=O)c1ccc(O)c(-c2ccc(Cl)c(Cl)c2)c1)C(=O)NCCN1CCCC1 (stereo not drawn) | 760 |
| COc1ccc(Nc2nc(NN=Cc3cc(Br)c(O)cc3O)nc(Nc3ccc([N+](=O)[O-])cc3)n2)cc1 | 900 |
| COc1ccc(Oc2ccccc2CNCC2CCN(CC3CCCCC3)CC2)cc1 | 900 |
| O=C(/C=C/c1ccc(Cl)c(Cl)c1)NCCCCCCN1CCCN(C(=O)Nc2ccc(F)c(Cl)c2)CC1 | 740 |
| CCCCCC(C)C(C)c1cc(O)c2c(c1)OC(C)(C)CC2(O)c1ccnn1C (stereo not drawn) | 960 |
| O=C(NCCSCc1c(F)cccc1Cl)c1cnc2c(c1)nc(-c1cnc(-c3ccccc3)[nH]1)n2CCc1cnc[nH]1 | 810 |
| O=C(Nc1ccc(Cn2nc(Cl)c(N3CCCNCC3)cc2=O)cc1)Nc1ccc(-c2ccccc2)cc1 | 840 |
| CCCCOc1ccc(-n2c(Nc3ccccc3)nc3cc(S(N)(=O)=O)ccc32)cc1 | 890 |
| NC(N)=Nc1nc(-c2cccc(NC(=O)Cc3ccccc3)c2)cs1 | 1000 |
| CC(c1cccc(S(=O)(=O)NCc2ccc(Cl)cc2Cl)c1)N1CCC(N2CCCCC2)CC1 (stereo not drawn) | 750 |
| O=C(Nc1ccncc1)c1cn(-c2ccccc2)nc1-c1cccs1 | 980 |
| COc1ccc(CC2(CO)CCN(Cc3ccc(O)c(Cl)c3)CC2)cc1 | 860 |
| Cc1nc(C)c(CC(=O)Nc2ccc(-c3ccc(-c4nc5ccc(C(F)(F)F)cc5[nH]4)s3)cc2)s1 | 1030 |
| CCc1ccc(CN2CCC(CNC(=O)c3cc(-c4ccccc4Cl)cs3)C2)cc1 (stereo not drawn) | 1430 |

From PubChem BioAssay AID2305 (GlaxoSmithKline (GSK), 2010)
